Test results taken from ChEMBL document CHEMBL4052769, “Synthesis and biological evaluation of novel 1,2,3-triazole derivatives as anti-tubercular agents” (Bioorg Med Chem Lett, 2017).
Converted amounts (≈) assume the structure as drawn.

How the values were obtained:
[1] = test system: Mycobacterium tuberculosis; assay: Antitubercular activity against Mycobacterium tuberculosis H37Ra ATCC 25177 after 4 weeks by Agar-based proportion Assay; type: functional; settings: H37Ra ATCC 25177, 672 h
[2] = Selectivity index, ratio of CC50 for Swiss mouse BMDM to MIC for Mycobacterium tuberculosis H37Ra ATCC 25177
[3] = Cytotoxicity against Swiss mouse BMDM assessed as reduction in cell viability after 24 hrs by MTS assay; type: cell-based; settings: bone marrow-derived macrophages (BMDM)

Compound	MIC [1] [µg/mL]	Selectivity Index [2]	CC50 at 24 h [3] [µg/mL]
Fc1ccc(-n2cc(COc3ccc(-c4ccccc4)cc3)nn2)cc1Cl	1.56 (≈ 4.11 µM)	64.1	100 (≈ 263 µM)
FC(F)Oc1ccc(-n2cc(COc3ccc(-c4ccccc4)cc3)nn2)cc1	1.56 (≈ 3.97 µM)	–	100 (≈ 254 µM)
CC(=O)OCCn1cc(COc2ccc(-c3ccccc3)cc2)nn1	1.56 (≈ 4.62 µM)	64.1	100 (≈ 296 µM)
Brc1ccc(-n2cc(COc3ccc(-c4ccccc4)cc3)nn2)cc1	> 25	–	–
NNC(=O)c1ccncc1 [ISONIAZID]	0.025 (≈ 0.182 µM)	4000	100 (≈ 729 µM)
O=[N+]([O-])c1ccc(-n2cc(COc3ccc(-c4ccccc4)cc3)nn2)cc1	> 25	–	–
COc1ccc(-n2cc(COc3ccc(-c4ccccc4)cc3)nn2)cc1	> 25	–	–
N#Cc1ccc(-n2cc(COc3ccc(-c4ccccc4)cc3)nn2)cc1	> 25	–	–
c1ccc(CCn2cc(COc3ccc(-c4ccccc4)cc3)nn2)cc1	> 25	–	–
CC[C@@H](CO)NCCN[C@@H](CC)CO [ETHAMBUTOL]	2 (≈ 9.79 µM)	50	100 (≈ 489 µM)
Clc1ccc(-n2cc(COc3ccc(-c4ccccc4)cc3)nn2)cc1	> 25	–	–
Fc1ccc(-n2cc(COc3ccc(-c4ccccc4)cc3)nn2)cc1	> 25	–	–
Fc1ccccc1-n1cc(COc2ccc(-c3ccccc3)cc2)nn1	0.78 (≈ 2.26 µM)	128	100 (≈ 290 µM)
FC(F)(F)c1ccc(-n2cc(COc3ccc(-c4ccccc4)cc3)nn2)cc1	3.12 (≈ 7.89 µM)	32	100 (≈ 253 µM)
CCCCCCCCn1cc(COc2ccc(-c3ccccc3)cc2)nn1	> 25	–	–
c1ccc(Cn2cc(COc3ccc(-c4ccccc4)cc3)nn2)cc1	> 25	–	–
c1ccc(-c2ccc(OCc3cn(-c4ccccc4)nn3)cc2)cc1	> 25	–	–
O=[N+]([O-])c1ccc(Cn2cc(COc3ccc(-c4ccccc4)cc3)nn2)cc1	> 25	–	–
Fc1ccc(-n2cc(COc3ccc(-c4ccccc4)cc3)nn2)cc1F	3.12 (≈ 8.59 µM)	32	100 (≈ 275 µM)
